In the test the target is T1, acetylcholine muscarinic M1 receptor (Homo sapiens, UniProt P11229).
T1 construct: expressed in transfected cells; host or cells: CHOnfat (CHO cells, Geneticin selection)
T1 sequence (P11229 1-460): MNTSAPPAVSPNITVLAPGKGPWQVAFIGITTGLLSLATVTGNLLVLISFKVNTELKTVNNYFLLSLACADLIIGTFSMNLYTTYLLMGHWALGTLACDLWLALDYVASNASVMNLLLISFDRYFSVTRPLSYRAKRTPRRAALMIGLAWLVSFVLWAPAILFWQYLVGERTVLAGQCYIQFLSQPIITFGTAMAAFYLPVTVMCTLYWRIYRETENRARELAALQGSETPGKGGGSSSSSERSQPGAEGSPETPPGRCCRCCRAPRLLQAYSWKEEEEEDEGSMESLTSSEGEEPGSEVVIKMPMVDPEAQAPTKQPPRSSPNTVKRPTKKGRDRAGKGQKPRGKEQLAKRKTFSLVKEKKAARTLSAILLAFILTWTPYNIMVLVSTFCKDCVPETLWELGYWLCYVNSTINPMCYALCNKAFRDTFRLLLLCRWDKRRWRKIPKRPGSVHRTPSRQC
Description: muscarinic FLIPR assay: potentiation of acetylcholine (EC20)-stimulated intracellular Ca2+ in CHOnfat/hM1 cells. In kind it is cell-based. As for the experimental part: The assay studies the effect of one or several concentrations of test compounds on basal or acetylcholine-stimulated Ca^2+ levels using FLIPR.
Compounds are prepared and subjected to a preincubation period of 4 min. Thereafter, a single EC20 concentration of acetylcholine is added to each well (3 nM final). The intracellular Ca^2+ level of each sample is measured and compared to an acetylcholine control to determine any modulatory activity.
Cells: CHOnfat/hM1, hM2, hM3 or hM4 cells are plated 24 hr before the assay at a density of 18,000 cells/well (100 μL) in a 384 well plate. CHOnfat/hM1 and CHOnfat/hM3 Growth Medium: 90% DMEM (Hi Glucose); 10% HI FBS; 2 mM L-glutamine; 0.1 mM NEAA; Pen-Strep; and 1 mg/ml Geneticin, are added. For M2Gqi5CHOnfat and M4Gqi5CHOnfat cells, an additional 600 μg/ml hygromycin is added.
Buffers. […] Dye Loading Buffer: Assay Buffer plus 1% Fetal Bovine Serum and Fluo-4AM/Pluronic Acid Mixture. […] 20% Pluronic Acid Solution stock, with a concentration of 0.04% in Buffer, 0.02% in Assay.
65 μL of 2 mM Fluo-4AM are mixed with 130 μL of 20% Pluronic Acid. The resulting solution and 650 μL FBS is added to the assay buffer for a total volume of 65 mL. Positive Controls: 4-Br-A23187: 10 mM in DMSO; final concentration 10 μM. Acetylcholine: 10 mM in water, working stock at both 20 μM and 30 μM in assay buffer, final concentration of 10 μM. This is used to check the maximum stimulation of the CHOK1/hM1 cells. 20 μM (2×) acetylcholine is added in the preincubation part of the assay, and the 30 μM (3×) stock is added in the second part. (EC20)Acetylcholine: 10 mM in water, working stock of 9 nM (3×), and final concentration in assay is 3 nM. This is used after the preincubation with test compounds. Addition of the EC20 acetylcholine to each well with a test compound will ascertain any modulator activity. 24 wells contain 3 nM acetylcholine alone as a control.
Determining Activity of Putative Compounds:
Four 96-well plates are combined into a 384-well plate using Mosquito Nanolitre Pipetting System by transferring 1 μl of serial diluted compounds to each well, and 1 mM acetylcholine (100× stock concentration) were added as a control. Using Temo, 49 μl assay buffer is added to each well of the 384-well plate right before assay.
In a 96-well Whatman 2 ml Uniplate, 9 nM acetylcholine (3×) is pipetted into wells corresponding to the screening compounds and into control wells. The 30 μM acetylcholine control (3×) is added into control wells and the 3× agonist plate is transferred into a 384-well plate.
Cells are washed three times with 100 μL of buffer, leaving 30 μL of buffer in each well. Using Multimek, 30 μL of Dye Loading Buffer is added into each well and incubated at 37° C., 5% CO2 for up to one hr.
After 60 min, the cells are washed three times with 100 μL of buffer, leaving 30 μL of buffer in each well. The cell plate, screening plate, and agonist addition plates are placed on the platform in the FLIPR and the door is closed. A signal test to check background fluorescence and basal fluorescence signal is performed. Laser intensity is adjusted if necessary.
4 min of preincubation with the test compounds is provided to determine any agonist activity on the M1 receptor by comparison to the 1 mM acetylcholine control. After preincubation, the EC20 value of acetylcholine (3 nM final) is added to determine any modulator activity.
The inflection point is calculated from the FLIPR values and is a measure of activity.

The source of these data is patent US8022215B2, “Fused pyridone M1 receptor positive allosteric modulators” (Merck Sharp & Dohme Corp., priority 2008, dated 2011).

Where two headings read alike, the source gives them in different places.

Consider `COc1ccc(-c2ccc(Cn3cc(C(=O)O)c(=O)c4c3CCCC4O)cc2)cn1` (stereo not shown) [Example 53], for which the EC50 is 0.323 µM.
On the same count and under the same terms, the figure for `N#Cc1ccc(-c2ccc(Cn3cc(C(=O)O)c(=O)c4c3CCCC4O)cc2)cc1` (stereo not shown) [Example 41] is 0.318 µM.
For the compound `O=C(O)c1cn(Cc2ccc(-c3ccccc3)cc2)c2c(c1=O)C(NCc1ccccc1)CCC2` (stereo not shown) [Example 72], the EC50 is 2.2 µM.
`COC1CCCc2c1c(=O)c(C(=O)O)cn2Cc1ccc(-c2ccccc2)cc1` (racemic) [Example 62, (±)-1-(Biphenyl-4-ylmethyl)-5-methoxy-4-oxo-1,4,5,6,7,8-hexahydroquinoline-3-carboxylic acid]: the EC50 amounted to 1.1 µM.
Same read-out and setting: the figure for `O=C(O)c1cn(C/C=C/c2ccccc2F)c2c(c1=O)C(=O)CCC2` [Example 15, 1-[(2E)-3-(2-Fluorophenyl)prop-2-en-1-yl]-4,5-dioxo-1,4,5,6,7,8-hexahydroquinoline-3-carboxylic acid] is 64 µM.
With `O=C(O)c1cn(Cc2ccc(-c3ccccc3)cc2)c2c(c1=O)C(=O)CCC2` [Example 6], the EC50 (CHOnfat/hM1 cells, FLIPR, 4 min preincubation, then EC20 acetylcholine (3 nM final), read-out: IP Value (inflection point)) came out at 0.806 µM.
Take `O=C(O)c1cn(Cc2ccc(-c3ccccc3)cc2)c2c(c1=O)CCC2` [Example 1, 1-(Biphenyl-4-ylmethyl)-4-oxo-4,5,6,7-tetrahydro-1H-cyclopenta[b]pyridine-3-carboxylic acid]: the EC50 was 0.812 µM.
In the case of `CCCCNC1CCCc2c1c(=O)c(C(=O)O)cn2Cc1ccc(-c2ccccc2)cc1` (stereo not shown) [Example 71], the EC50 was found to be 1.5 µM.
Still for that read-out and setting: the same measure for `Cn1ccc2cc(-c3ccc(Cn4cc(C(=O)O)c(=O)c5c4CCCC5O)nc3)ccc21` (stereo not shown) [Example 66]: 0.199 µM.
Same read-out and setting: the same measure for `COc1ccccc1-c1ccc(Cn2cc(C(=O)O)c(=O)c3c2CCCC3O)cc1` (racemic) [Example 27, (±)-5-Hydroxy-1-[(2′-methoxybiphenyl-4-yl)methyl]-4-oxo-1,4,5,6,7,8-hexahydroquinoline-3carboxylic acid]: 3.14 µM.
Turning to `CCC1(O)CCCc2c1c(=O)c(C(=O)O)cn2Cc1ccc(-c2ccccc2)cc1` (racemic) [Example 68, (±)-1-(Biphenyl-4-ylmethyl)-5-ethyl-5-hydroxy-4-oxo-1,4,5,6,7,8-hexahydroquinoline-3-carboxylic acid], the EC50 came to 9.05 µM.
In the case of `CNC1CCCc2c1c(=O)c(C(=O)O)cn2Cc1ccc(-c2ccccc2)cc1` (stereo not shown) [Example 70], the EC50 turned out to be 8.37 µM.
Still for that read-out and setting: the same measure for `O=C(O)c1cn(Cc2ccc(-c3ccccc3)cc2)c2c(c1=O)C(N1CCCC1)CCC2` (stereo not shown) [Example 73]: 4.1 µM.
